Laboratory results reported in article PMC6588435 (Cell chemical biology, 2019).
≈ marks a conversion by molar mass, not a printed value. Where “and” joins values, the source holds several entries; their conditions need not be identical. Equal values may be shown once. Read-outs that look alike come from different tables or passages of the source.

What was measured:
Mtb Erdman (ATCC 35801) = test: In vitro susceptibility testing; format: cell-based, Mycobacterium tuberculosis
Mtb Erdman cells = format: cell-based, Mycobacterium tuberculosis
Mtb Rv2671 = Mtb Rv2671 (Mycobacterium tuberculosis, UniProt P71968); test: Mtb Rv2671 enzyme inhibition assay; format: biochemical
Mtb DHFR [1] = molecular target: T1, Mtb DHFR (Mycobacterium tuberculosis, UniProt P9WNX1); test: biochemical
T1 sequence (P9WNX1 whole entry): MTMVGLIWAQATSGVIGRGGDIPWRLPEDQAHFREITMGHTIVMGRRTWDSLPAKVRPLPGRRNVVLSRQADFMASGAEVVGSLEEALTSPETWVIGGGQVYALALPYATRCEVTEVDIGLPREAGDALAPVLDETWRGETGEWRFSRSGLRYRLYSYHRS

Mtb DHFR [2] = molecular target: T1, Mtb DHFR; test: biochemical; remark: listed apart in the source
Mtb FDTS [3] = molecular target: T2, Mtb FDTS (Mycobacterium tuberculosis, UniProt P9WG57); test: HPLC analysis of Mtb FDTS reaction; format: biochemical
T2 sequence (P9WG57 whole entry): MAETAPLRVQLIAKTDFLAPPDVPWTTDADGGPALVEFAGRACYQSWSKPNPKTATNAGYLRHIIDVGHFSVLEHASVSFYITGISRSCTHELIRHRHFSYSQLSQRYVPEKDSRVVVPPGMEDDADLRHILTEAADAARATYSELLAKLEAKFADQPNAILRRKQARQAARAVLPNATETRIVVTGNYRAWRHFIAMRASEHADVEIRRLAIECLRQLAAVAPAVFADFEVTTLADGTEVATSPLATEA

Mtb FDTS [4] = molecular target: T2, Mtb FDTS; test: Mtb FDTS NADPH oxidation assay; format: biochemical
Mtb FDTS [5] = molecular target: T2, Mtb FDTS; test: Differential scanning calorimetry of Mtb FDTS; settings: DSC; control (FDTS, dUMP, FAD) 66.6 °C
Mtb DHFR [6] = molecular target: T1, Mtb DHFR; format: binding; settings: DSC, with NADPH; control (Mtb DHFR+NADPH) 65 °C
Mtb cells = settings: treatment of Mtb cells; ref Nixon et al. (2014); cited from earlier work
[7] = read-out: Mtb Rv2671 Ki, 50 μM NADPH

CN(Cc1cnc2nc(N)nc(N)c2n1)c1ccc(C(=O)N[C@@H](CCC(=O)O)C(=O)O)cc1 [MTX, Methotrexate]
MIC (Mtb Erdman (ATCC 35801); Mycobacterium tuberculosis, ATCC35801|ERDMAN): > 100 µg/mL

Nc1ccc(C(=O)O)c(O)c1 [PAS, para-aminosalicylic acid]
reduction of 14C incorporation to the FAME/MAME fraction (Mtb Erdman cells; 0.36 μg/ml): 52%
effect on methoxymycolic acids (Mtb Erdman cells; TLC of FAME/MAME): significant reduction
MIC (Mtb Erdman (ATCC 35801); Mycobacterium tuberculosis, ATCC35801|ERDMAN, read-out: MIC, WT Mtb): 0.5 µg/mL (≈ 3.27 µM)

Nc1nc(=O)c2nc(CNc3ccc(C(=O)NC(CCC(=O)O)C(=O)O)c(O)c3)cnc2[nH]1 (centres unmarked) [PAS-M, 2-[(4-{[(2-amino-4-oxo-1,4-dihydropteridin-6-yl)methyl]amino}-2-hydroxyphenyl)formamido] pentanedioic acid]
Ki (Mtb Rv2671): 27.5 µM
koff (Mtb DHFR [1]; read-out: Mtb DHFR koff): 0.0107 s⁻¹
residence time (Mtb DHFR [1]; read-out: Mtb DHFR tR (residence time)): 1.5 ± 0.3 min
Ki (Mtb DHFR [2]): 0.75 ± 0.12 µM
decrease in dTMP levels compared to control (Mtb FDTS [3]): ~ 2.5 fold
IC50 (Mtb FDTS [4]): 14.4 ± 1.5 µM
Mtb FDTS Tm (Mtb FDTS [5]): 71.9 °C

CCc1nc(N)nc(N)c1C#C[C@H](C)c1cc(-c2ccncc2)ccc1OC [UCP1063]
Ki (Mtb Rv2671; [7]): 0.052 ± 0.0062 µM
Mtb DHFR Tm (Mtb DHFR [6]): 71 °C and 71 ± 2.7 °C
MIC (Mtb Erdman (ATCC 35801)): 2 µg/mL (≈ 5.36 µM)

CCc1nc(N)nc(N)c1C#C[C@@H](C)c1cc(-c2ccc(C(=O)O)cc2)ccc1OC [UCP1164]
Ki (Mtb Rv2671; [7]): 0.12 ± 0.0085 µM
MIC (Mtb Erdman (ATCC 35801)): 0.5 µg/mL (≈ 1.2 µM)

CC1(C)N=C(N)N=C(N)N1OCCCOc1cc(Cl)c(Cl)cc1Cl [WR99210]
decrease in the concentration of SAM (Mtb cells): 20 fold
